Experimental data reported in patent US12377083B2 (WUHAN LL SCIENCE AND TECHNOLOGY DEVELOPMENT CO., LTD., priority 2019, dated 2025).

Assays:
[1] = molecular target: hLPAR1 (human lysophosphatidic acid receptor 1) (Homo sapiens, UniProt Q92633); test: FLIPR assay of intracellular calcium increase induced by activation of hLPAR1 expressed in CHO-K1 cells; format: cell-based; details: CHO-K1 cells expressing hLPAR1, agonist oleoyl-L-α-lysophosphatidic acid 1 μM; read-out: LPAR1 IC50
How it was run: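 CHO-K1 cells expressing hLPAR1 were loaded with Fluo-4 AM for 1.0 h at 37° C, then preincubated 30 min at room temperature with compound. Oleoyl-LPA was added at 1 μM final, and calcium fluorescence was recorded by FLIPR for 2 min at 1-s intervals to assess antagonism.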

[2] = test system: A2058 (human melanoma cells); test: A2058 cell scratch (migration) assay with LPA; format: cell-based; details: 10 μM LPA, scratch area at 24 h
[3] = In vitro cytotoxicity assay in HepG2 cells, CCK-8 method; format: cell-based; details: human
How it was run: (§1)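 Cells plated at 50,000/well, grown overnight to 80-90% confluence, then given fresh medium with graded compound or DMSO for 48 h at 37°C, 5% CO2. After PBS washes, CCK-8 added for 1.5 h at 37°C in the dark; OD450 read and CC50 calculated.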

[4] = In vitro metabolic stability, human liver microsomes; format: in vitro ADME; details: 1 mg/mL liver microsome protein, 37° C., read-out: Metabolism in human liver microsome T½ min
Procedure: (§2) The in vitro metabolic stability of the compounds disclosed herein was determined through incubation of liver microsomes of various species. A proper amount of test compound was added into a liver microsome reaction system (1 mg/mL liver microsome protein, 25 U/mL glucose-6 phosphate dehydrogenase, 1 mM NADP, 6 mM D-glucose 6-phosphate and 5 mM MgCl2), and then the mixture was incubated in a water bath kettle at 37° C. to start reaction. At each time point, 100 μL of the reaction system was added into a centrifuge tube containing 400 μL of internal standard working solution (containing a 200 ng/mL solution of dexamethasone, diclofenac, tolbutamide and labetalol in acetonitrile) precooled at 0° C. so as to stop the reaction, and the mixture was then centrifuged at 10,000 g for 10 min at 4° C. The supernatant was collected for LC-MS assay so as to obtain the values of in vitro metabolic half-life of the test compounds in liver microsomes of various species.

[5] = In vitro metabolic stability, rat liver microsomes; format: in vitro ADME; details: 1 mg/mL liver microsome protein, 37° C., read-out: Metabolism in rat liver microsome T½ min
Procedure: as §2

[6] = In vitro metabolic stability, mouse liver microsomes; format: in vitro ADME; details: 1 mg/mL liver microsome protein, 37° C., read-out: Metabolism in mouse liver microsome T½ min
Procedure: as §2

[7] = test system: HepG2 cells; test: In vitro cytotoxicity assay in HepG2 cells, CCK-8 method; format: cell-based; details: 48 h
How it was run: as §1

Chain of hLPAR1 (human lysophosphatidic acid receptor 1) (Q92633 whole entry): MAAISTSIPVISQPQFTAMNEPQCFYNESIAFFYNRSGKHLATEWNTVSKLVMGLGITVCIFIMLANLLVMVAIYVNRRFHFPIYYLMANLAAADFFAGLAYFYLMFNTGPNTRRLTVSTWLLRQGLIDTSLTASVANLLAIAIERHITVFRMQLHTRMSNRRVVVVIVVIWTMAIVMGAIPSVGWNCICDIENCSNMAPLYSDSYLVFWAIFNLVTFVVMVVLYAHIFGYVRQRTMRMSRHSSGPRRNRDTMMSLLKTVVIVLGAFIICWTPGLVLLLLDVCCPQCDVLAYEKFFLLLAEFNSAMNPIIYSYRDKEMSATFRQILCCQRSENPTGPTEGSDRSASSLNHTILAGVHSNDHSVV

Row | SMILES | IC50 [1] [µM] | half-life [4] [min] | half-life [5] [min] | half-life [6] [h] | Cell migration inhibition rate (%) [2] | CC50 at 48 h [3] [µM] | CC50 [7] [µM]
1 | Cc1onc(-c2ccc(O[C@H]3CCC[C@H](C(=O)O)C3)cc2)c1COC(=O)N(C)C1CCCC1 (racemic) [Compound 7, (+/−)-(1S,3S)-3-(4-(4-(((cyclopentyl(methyl)carbamoyl)oxy)methyl)-5-methylisoxazol-3-yl)phenoxy)cyclohexane-1-carboxylic Acid] | < 0.05 | 109 | 2.81 | 2.48 | A (A: 50-70%) | > 200 | –
2 | CN(C(=O)OCc1ocnc1-c1ccc(O[C@H]2CCC[C@H](C(=O)O)C2)cc1)C1CCCC1 (racemic) [Compound 8, (+/−)-(1S,3S)-3-(4-(5-(((cyclopentyl(methyl)carbamoyl)oxy)methyl)oxazol-4-yl)phenoxy)cyclohexane-1-carboxylic Acid] | 0.3 to 10 | > 30 | > 30 | > 0.5 | C (C: 0-30%) | > 200 | –
3 | CN(C(=O)OCc1ocnc1-c1ccc(O[C@H]2CCC[C@H](C(=O)O)C2)cn1)C1CCCC1 (racemic) [Compound 14] | 0.3 to 10 | > 30 | > 30 | > 0.5 | C (C: 0-30%) | > 200 | –
4 | CN(C(=O)OCc1ocnc1-c1ccc(O[C@H]2CCC[C@H](C(=O)O)C2)c(F)c1)C1CCCC1 (racemic) [Compound 15, (+/−)-(1S,3S)-3-(4-(5-(((cyclopentyl(methyl)carbamoyl)oxy)methyl)oxazol-4-yl)-2-fluorophenoxy)cyclohexane-1-carboxylic Acid] | 0.3 to 10 | > 30 | > 30 | > 0.5 | C (C: 0-30%) | > 200 | –
5 | CN(C(=O)OCc1c(-c2ccc(O[C@H]3CCC[C@H](C(=O)O)C3)cn2)ncn1C)C1CCCC1 (racemic) [Compound 19, (+/−)-(1S,3S)-3-((6-(5-(((cyclopentyl(methyl)carbamoyl)oxy)methyl)-1-methyl-1H-imidazol-4-yl)pyridin-3-yl)oxy)cyclohexane-1-carboxylic Acid] | 0.3 to 10 | – | – | – | C (C: 0-30%) | – | > 200
6 | CN(C(=O)OCc1c(-c2ccc(O[C@H]3CCC[C@H](C(=O)O)C3)c(F)c2)cnn1C)C1CCCC1 (racemic) [Compound 20, (+/−)-(1S,3S)-3-(4-(5-(((cyclopentyl(methyl)carbamoyl)oxy)methyl)-1-methyl-1H-pyrazol-4-yl)-2-fluorophenoxy)cyclohexane-1-carboxylic Acid] | < 0.05 | > 30 | > 30 | > 0.5 | B (B: 30-50%) | > 200 | –
7 | Cc1nsc(-c2ccc(O[C@H]3CCC[C@H](C(=O)O)C3)cc2)c1COC(=O)N(C)C1CCCC1 (racemic) [Compound 28, (+/−)-(1S,3S)-3-(4-(4-(((cyclopentyl(methyl)carbamoyl)oxy)methyl)-3-methylisothiazol-5-yl)phenoxy)cyclohexane-1-carboxylic Acid] | < 0.05 | > 30 | < 30 | > 0.5 | A (A: 50-70%) | > 200 | –
8 | Cc1nc(-c2onc(C)c2COC(=O)N(C)C2CCCC2)ccc1O[C@H]1CCC[C@H](C(=O)O)C1 (racemic) [Compound 36] | < 0.05 | 145 | 28.4 | 5.66 | A (A: 50-70%) | > 200 | –

More lines, main results first:

Row | IC50 [1] [µM] | half-life [4] [min] | half-life [5] [min] | half-life [6] [h] | SMILES | Cell migration inhibition rate (%) [2] | CC50 at 48 h [3] [µM] | CC50 [7] [µM]
9 | 0.05 to 0.3 | 68.8 | 17.2 | 3.55 | CN(C(=O)OCc1c(-c2ccc(O[C@H]3CCC[C@H](C(=O)O)C3)c(C(F)(F)F)n2)cnn1C)C1CCCC1 (racemic) [Compound 13, (+/−)-(1S,3S)-3-((6-(5-(((cyclopentyl(methyl)carbamoyl)oxy)methyl)-1-methyl-1H-pyrazol-4-yl)-2-(trifluoromethyl)pyridin-3-yl)oxy)cyclohexane-1-carboxylic Acid] | B (B: 30-50%) | > 200 | –
10 | < 0.05 | > 30 | ~30 | > 0.5 | CN(C(=O)OCc1c(-c2ccc(O[C@H]3CCC[C@H](C(=O)O)C3)c(F)n2)cnn1C)C1CCCC1 (racemic) [Compound 62, (+/−)-(1S,3S)-3-((6-(5-(((cyclopentyl(methyl)carbamoyl)oxy)methyl)-1-methyl-1H-pyrazol-4-yl)-2-fluoropyridin-3-yl)oxy)cyclohexane-1-carboxylic Acid] | A (A: 50-70%) | > 200 | –
11 | < 0.05 | 386 | 44.9 | 8.96 | CN(C(=O)OCc1c(-c2ccc(O[C@H]3CCC[C@H](C(=O)O)C3)c(C(F)F)n2)cnn1C)C1CCCC1 (racemic) [Compound 63, (+/−)-(1S,3S)-3-((6-(5-(((cyclopentyl(methyl)carbamoyl)oxy)methyl)-1-methyl-1H-pyrazol-4-yl)-2-(difluoromethyl)pyridin-3-yl)oxy)cyclohexane-1-carboxylic Acid] | B (B: 30-50%) | > 200 | –
12 | 0.05 to 0.3 | 449 | 57.5 | 61.2 | CN(C(=O)OCc1c(-c2ccc(O[C@H]3CCC[C@H](C(=O)O)C3)c(CF)n2)cnn1C)C1CCCC1 (racemic) [Compound 89] | A (A: 50-70%) | 14.3 | –
